These results are taken from US20200361919A1, “DEUTERATED INDOLEAMINE 2,3-DIOXYGENASE INHIBITOR AND APPLICATION THEREOF” (NANJING TRANSTHERA BIOSCIENCES CO. LTD., priority 2017, published 2020).

Structures are written as SMILES. pIC50: −log10 of the molar value. Like-named read-outs stand apart in the source and are kept apart here.

Usually pIC50 stands for the IC50 on a negative log10 scale, so that one unit is a factor of ten. The term AUC(0-t) denotes exposure summed from dosing to a finite time, without extrapolation to infinity. A lower AUC(0-t) goes with low exposure.

The target in one data set is T1, IDO-1 (Homo sapiens, UniProt P14902).
T1 construct: made in house
T1 sequence (P14902 whole entry, species assumed): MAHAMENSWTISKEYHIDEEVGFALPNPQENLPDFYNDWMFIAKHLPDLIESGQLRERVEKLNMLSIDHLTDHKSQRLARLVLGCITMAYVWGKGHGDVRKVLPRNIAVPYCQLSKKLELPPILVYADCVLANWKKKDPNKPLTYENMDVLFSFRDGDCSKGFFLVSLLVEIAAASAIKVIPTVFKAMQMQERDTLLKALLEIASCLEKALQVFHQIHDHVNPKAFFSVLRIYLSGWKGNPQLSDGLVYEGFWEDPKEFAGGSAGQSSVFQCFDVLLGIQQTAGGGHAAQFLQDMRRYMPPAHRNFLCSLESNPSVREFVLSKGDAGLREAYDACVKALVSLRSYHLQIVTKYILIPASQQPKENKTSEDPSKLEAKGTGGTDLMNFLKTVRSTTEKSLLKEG
As to the kind of experiment: Enzymatic assay, IDO-1. In kind it is biochemical. As for the experimental part:
(§1) Test substance: Compound 1 of the present invention, prepared according to the method of Example 1 or the Step 3 of Example 5
(§2) I. Experimental materials and instruments
(§3) Preparation of compound: The compound was made up into 1 mM compound mother liquor with DMSO, and then the compound was diluted 3.16 times with DMSO to obtain 10 concentration gradients (100×) of the compound of the diluted mother liquors..
(§4) Medication and incubation: 10 μL of 100× compound of the diluted mother liquors were added into a 96-well plate, to which was added 10 μL of enzyme solution (IDO-1 or TDO), centrifuged at 2000 rpm for 1 minute, and incubated at room temperature for 30 minutes. 4% DMSO enzyme-free solution was used as a negative control, and 4% DMSO enzyme-containing solution was used as a positive control. 20 μL of substrate mixture (L-tryptophan, ascorbate, methylene blue, catalase) was added and incubated for 1 hour at room temperature, then 20 μL of stop solution was added to the experimental plate to terminate the reaction. After shaking and mixing, incubation was carried out at 60° C. for 30 minutes. […]
(§5) Detection: A microplate reader was used to detect the absorbance value at 492 nm.
(§6) Calculation: The inhibition rate was calculated according to the following formula, using the Spectramax program to fit the curve slope, and using GraphPad Prism5.0 to fit the IC50: […]

The next data set has as its target T2, TDO (Homo sapiens, UniProt P48775).
T2 construct: made in house
As to the kind of experiment: Enzymatic assay, TDO. In kind it is biochemical. As for the experimental part: as §1, §2, §3, §4, §5, §6

In another data set the test system is Hela cells. The data set is described as follows: Cytological evaluation in rhIFN-γ stimulated Hela cells. In kind it is cell-based. As to conditions: rhIFN-γ 50 ng/ml, read-out: Hela Cell IC50. The method, then:
Test substances: Compounds 1-3 of the present invention, prepared as described in the previous specific Examples.
Hela cell line (Cell Bank, Chinese Academy of Sciences)
Recombinant human IFN-γ (rhIFN-γ, purchased from R&D Systems, Cat. No. 285-IF-100)
Cell plating: Hela cell suspension was prepared with fresh phenol red-free DMEM medium, and 20,000 cells/well were added to a 96-well cell culture plate, and cultured in 5% carbon dioxide at 37° C. overnight.
Preparation of compounds: the compounds were made up into 0.5 mM solution with DMSO, and the compounds were diluted 3.16 times with DMSO to obtain 8 compound mother liquors of concentration gradients (500×), and diluted with cell culture medium to prepare 10× dilutions.
Medication and incubation: After the cells were seeded and cultured overnight, 10 μL of a compound of the corresponding diluted mother liquor (10×) was added to each well and incubated for 1 hour, then 10 μL of 500 ng/ml rhIFN-γ was added, the final volume of each well was 100 μL. The negative control wells contained 100 μL of 0.5% DMSO cell culture medium and Hela cells. The positive control wells were the wells where rhIFN-γ at a final concentration of 50 ng/ml was added to the negative control wells, and the background control wells contained 100 μL of cell culture medium. After incubation in a 37 ° C. incubator for 24 hours. the cell morphology was observed under an inverted microscope.
Detection: After the cell plate was centrifuged, 80 μL of the supernatant was taken and added to a Corning 96-well plate, 10 μL of trichloroacetic acid was added to each well, shaken, placed in a 60 ° C. incubator for 30 minutes, and centrifuged at 2500 rpm for 5 minutes. 45 μL of the supernatant was taken and transferred to a new plate, 45 μL of chromogenic solution was added, shaken to make the reaction uniform. After incubating at room temperature for 15 minutes, the absorbance at 492 nm wavelength was read.

The nature of data set [1]: Evaluation of pharmacokinetics in mice. In kind it is in vivo, C57BL/6 female mice. As to conditions: for Cl_obs / Vz_obs / tz 1/2 / AUC(0-t) / AUC(0-inf): IV 5 mg/kg, C57BL/6 female mice, mean; for AUC(0-t) / AUC(0-inf): mouse, plasma; for AUC(0-inf): read-out: AUCINF_obs. As for the experimental part: Test substance: Compound 1 of the present invention,prepared according to the method of Example 1 or Step 3 of Example 5;
Compound R, prepared as described in Example 8.
Animal: C57BL/6 female mice
The Compound 1 used in the test was dissolved in 10% DMA+10% (30% solutol)+80% saline to prepare a solution, and the non-deuterated compound was dissolved in 10% DMA+10% PEG+80% saline to prepare a solution. C57BL/6 female mice were administered intravenously with Compound 1 at a dose of 5.0 mg/kg. The time points for blood sampling were: 5 min, 15 min, 30 min, 1 h, 2 h, 4 h, 6 h, 8 h, and 24 h. About 100 μL of blood was collected from the venous plexus, and the blood sample was placed in an anti-coagulation tube containing EDTA-K2. The blood sample was centrifuged at 8000 rpm for 6 minutes at 4° C. to obtain a plasma sample, wherein the plasma must be prepared within 30 minutes after blood sampling, and stored in −80° C. refrigerator before plasma testing.
The sample (−80° C.) to be tested was taken out from the refrigerator, melted at room temperature and vortexed for 5 minutes; 10 μL of plasma samples of 3 different individuals were precisely pipetted into 1.5 mL centrifuge tubes (for standard curve of plasma, 30 μL); 200 μL of 100 ng/mL internal standard working solution was added, and mixed well; vortexed for 5 min, then centrifuged for 5 min (12000 rpm); precisely pipetted 50 μL of supernatant into a 96-well plate to which was added 150 μL/well of water in advance; vortexed and mixed for 5 min. The injection volume was 15 μL, and LC-MS/MS measurement was carried out.
The concentrations of test substance were used from the analysis results of AB Analyst 1.6.3. Microsoft Excel was used to calculate the parameters such as mean, standard deviation, and coefficient of variation (those directly output from Analyst 1.6.3 were not calculated). The PK parameters were calculated using Pharsight Phoenix 6.1 software NCA.

A further data set relates to CT26 cells. The data set is described as follows: In vivo pharmacodynamics, subcutaneous homograft model with colon cancer cell CT26 in mouse. Also on record: species or system Balb/C mice. As to conditions: 150 mg/kg PO Bid 10 days, CT26 tumor-bearing mice. The method, then:
Test substance: Compound 1 of the present invention, which structure was shown in the foregoing.
CT26 cells were cultured in RPMI1640 medium containing 10% fetal bovine serum. CT26 cells in exponential growth phase were collected, and resuspended in PBS to a suitable concentration for subcutaneous tumor inoculation in mice.
0.1 mL of cell suspension (cells suspended in PBS) containing about 5×10^5 CT26 cells was subcutaneously inoculated into the skin of the right back of female Balb/C mice. The mice were grouped and administrated when the average tumor volume reached about 100 mm^3. Grouping method: weighing animals before administration, and measuring tumor volume. According to tumor volume, the mice were grouped using block design, 9 mice in each group.
Administration was performed according to Table 7 below.
The animals' health and death were monitored daily, their body weights and tumor volumes were measured twice a week, and samples were collected after the last dose. The curative effect of tumor volume was evaluated by TGI%, wherein relative tumor suppression rate TGI (%) was: TGI=1-T/C (%). T/C% was the relative tumor increment rate, that is, the percentage of tumor volume in the treatment group relative to that of the control group at a specific time point. […]

Data set [2] is described as follows: Stability test of Crystalline Form A. In kind it is physicochemical. The text has this:
Method: Crystalline Form A was left open at high temperature and in high humidity conditions, and XRPD patterns were compared to […]. The data in Table 5 below were obtained.

Data set [3] is described as follows: Stability test of Crystalline Form B. In kind it is physicochemical. The text has this:
Method: Crystalline Form B was left open for 10 days at high temperature and in high humidity conditions. The properties, measured content and impurities of the Crystalline Form B were observed, and the XRPD patterns were compared to obtain the data in Table 6.

Where [4] appears, read: IV 5 mg/kg mice, compared with Compound R.
Where [5] appears, read: High temperature, 60° C., left open, 10 days.

T2 sequence (P48775 whole entry, species assumed): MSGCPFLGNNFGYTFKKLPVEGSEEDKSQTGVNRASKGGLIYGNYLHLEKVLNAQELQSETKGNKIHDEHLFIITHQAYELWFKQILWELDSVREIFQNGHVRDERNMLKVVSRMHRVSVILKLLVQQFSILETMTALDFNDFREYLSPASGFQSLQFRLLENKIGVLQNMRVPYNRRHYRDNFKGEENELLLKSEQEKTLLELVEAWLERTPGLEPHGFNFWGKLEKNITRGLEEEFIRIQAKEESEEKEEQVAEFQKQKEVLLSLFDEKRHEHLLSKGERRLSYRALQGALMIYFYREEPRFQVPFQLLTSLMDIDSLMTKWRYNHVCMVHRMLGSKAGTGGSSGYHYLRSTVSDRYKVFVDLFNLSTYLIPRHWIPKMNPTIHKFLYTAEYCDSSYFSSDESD

Regarding `[2H]C1([2H])CC(Nc2nonc2C(=NO)Nc2ccc(F)c(Br)c2)CC([2H])([2H])S1(=O)=O` [Compound 1, N-(3-bromo-4-fluorophenyl)-4-((1,1-dioxotetrahydro-2H-thian-4-yl-2,2,6,6-d4)amino)-N′-hydroxy-1,2,5-oxadiazole-3-carboxamidine], the pIC50 on IDO-1 is 7.07. Moreover, on TDO, the pIC50 was 5.30. In addition, the pIC50 in the data set with Hela cells (24 hours) was 7.00. In addition, in data set [1] (setting [4]), the “clearance rate (in words)” value is on record as “lower” and the “exposure amount (in words)” value is given as “higher”. In data set [1], the Cl_obs is 36.5 mL/min/kg, the Vz_obs is reported as 11.7 L/kg, the “tz 1/2” value is 3.70 h and the AUC(0-t) was 2040 ng·h/mL. The AUC(0-inf) in data set [1] worked out at 2290 ng·h/mL. For the same compound, in the data set on CT26 cells, the “TGI (tumor volume inhibition rate)” value is on record as 38% and the Tumor volume is 414.32 ± 52.44 mm^3.
For the compound `[2H]C1([2H])CC(Nc2nonc2C(=NO)Nc2ccc(F)c(Br)c2)C([2H])([2H])S1(=O)=O` (stereo not drawn) [Compound 2, N-(3-bromo-4-fluorophenyl)-4-((1,1-dioxotetrahydro-thiophen-3-yl-2,2,5,5-d4)amino)-N-hydroxy-1,2,5-oxadiazole-3-carboxamidine], the negative logarithm of the IC50 (pIC50) in the data set with Hela cells (Homo sapiens, HeLa, 24 h) was 7.30.
Take `[2H]C1([2H])CC(Nc2nonc2C(=NO)Nc2ccc(F)c(Br)c2)CC([2H])([2H])S1(=O)=O` [Crystal Form A of Compound 1]: the pIC50 with Hela cells (24 hours) was 7.40. Besides, the “Impurity, %” value is 0.74% in data set [2] (0-Day) and 0.99% in data set [2] (RH 92.5%, left open, 10 days). Besides, the XRPD entry in data set [2] (0-Day) is given as “Crystal Form A, FIG. 1”; in data set [2] (High temperature, 105° C., left open, 3 days) it was “Consistent with the 0-day XRPD”; in data set [2] (RH 92.5%, left open, 3 days), “Consistent with the 0-day XRPD”.
In the case of `[2H]C1([2H])CC(Nc2nonc2C(=NO)Nc2ccc(F)c(Br)c2)CC([2H])([2H])S1(=O)=O` [Crystal Form B of Compound 1], the pIC50 with Hela cells (24 hours) is 7.52. Also, in data set [3] (0-Day), the “Content, %” value was found to be 99.6%; the “Impurity, %” value is 0.17%; the Properties result was “Off-white”; the XRPD entry was “Crystal Form B,”. Further, in data set [3] (setting [5]), the “Content, %” value amounted to 99.4%; the “Impurity, %” value was 0.16%; the Properties entry is reported as “Off-white”. In data set [3] (RH 92.5%, left open, 10 days), the “Content, %” value came to 99.3%; the “Impurity, %” value came out at 0.15%; the Properties result is on record as “Off-white”.
As for `O=S1(=O)CCC(Nc2nonc2C(=NO)Nc2ccc(F)c(Br)c2)CC1` [Compound R, N-(3-bromo-4-fluorophenyl)-4-((1,1-dioxotetrahydro-2H-thian-4-yl)amino)-N′-hydroxy-1,2,5-oxadiazole-3-carboxamidine, reference compound], in data set [1], the Cl_obs turned out to be 73.2 mL/min/kg, the Vz_obs is on record as 12 L/kg, the “tz 1/2” value was found to be 1.81 h and the AUC(0-t) came to 1120 ng·h/mL. Besides, the AUC(0-inf) in data set [1] was 1140 ng·h/mL.
`[2H]C1([2H])C(Nc2nonc2C(=NO)Nc2ccc(F)c(Br)c2)C([2H])([2H])S1(=O)=O` [Compound 3, N-(3-bromo-4-fluorophenyl)-4-((1,1-dioxothiacyclobutan-3-yl-2,2,4,4-d4)amino)-N′-hydroxy-1,2,5-oxadiazole-3-carboxamidine]: in the data set on Hela cells (Homo sapiens, HeLa, 24 h), the negative logarithm of the IC50 (pIC50) is 7.30.
